Laboratory results reported in patent publication US5714508A, “Bicycle Derivatives of imidazole” (Roussel Uclaf, priority 1993, dated 1998).

How the values were obtained:
angiotensin II receptor = biological target: T1, angiotensin II receptor (Rattus norvegicus, UniProt P25095); assay: Test on the angiotensin II receptor (displacement of 125I angiotensin II from rat liver membranes); type: binding; conditions: rat liver membrane preparation, 25° C., 150 minutes, Tris buffer pH 7.4, read-out: IC50 in Nanomoles
T1 construct: A fresh membrane preparation obtained from rat's liver was used; from tissue; host or cells: rat liver membranes
T1 sequence (P25095 1-359): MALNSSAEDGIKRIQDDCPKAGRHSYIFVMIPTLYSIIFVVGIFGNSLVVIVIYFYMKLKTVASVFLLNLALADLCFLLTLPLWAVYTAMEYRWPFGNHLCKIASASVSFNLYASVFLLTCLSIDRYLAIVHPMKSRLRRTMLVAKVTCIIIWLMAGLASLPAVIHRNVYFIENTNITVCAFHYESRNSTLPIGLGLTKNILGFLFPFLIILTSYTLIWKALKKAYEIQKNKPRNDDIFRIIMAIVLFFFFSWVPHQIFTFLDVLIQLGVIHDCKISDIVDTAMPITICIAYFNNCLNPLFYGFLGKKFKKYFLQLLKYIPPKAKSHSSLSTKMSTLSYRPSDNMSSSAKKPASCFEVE
Experimental: 1--Test on the angiotensin II receptor
A fresh membrane preparation obtained from rat's liver was used and the tissue was ground up in a polytron in a 50 mM Tris buffer pH 7.4. The grinding process was followed by 3 centrifugations at 30,000 g for 15 minutes with intermediate taking up of the pellets in the Tris buffer pH 7.4. The last pellets were suspended in an incubation buffer (20 mM Tris, 135 mM NaCl, 10 mM KCl, 5 mM glucose, 10 mM MgCl2, 0.3 mM PMSF, 0.1 mM bacitracin, 0.2% BSA. 2 ml aliquoted fractions were distributed in hemolysis tubes and 125I angiotensin II (25,000 DPM/tube) and the product under test were added. The product was first tested at 3×10^-5 M three times. When the product tested displaced more than 50% of the radioactivity linked specifically to the receptor, it was tested again in a range of 7 concentrations to determine the concentration which inhibited 50% of the radioactivity linked specifically to the receptor. In this way, the 50% inhibiting concentration was determined.
The non-specific bond was determined by the addition of a product of Example 94 of European Patent No. 0,253,310 at 10^-5 M (three times). After incubation at 25° C. for 150 minutes, the suspension was put in a water-bath at 0° C. for 5 minutes, filtered under vacuum, rinsed with a Tris pH 7.4 buffer and the radioactivity was counted in the presence of scintillating Triton. The result was expressed directly as a 50% inhibiting concentration (IC50), that is to say the concentration of product studied, expressed in […], necessary to displace 50% of the specific radioactivity fixed to the receptor studied.

angiotensin II = assay: Test of the antagonistic activity of angiotensin II in a demedullated rat (diastolic arterial pressure); type: in vivo, Male Sprague Dawley rats; conditions: iv, venous route, injected 5 minutes before angiotensin II (0.75 micrograms/kg), pressure effects, read-out: 50% Inhibitory Doses
Experimental: 2--Test of the antagonistic activity of angiotensin II in a demedullated rat
Male Sprague Dawley rats weighing 250 to 350 g were anaesthetized by an intraperitoneal injection of sodium pentobarbital (60 mg/kg). The diastolic arterial pressure was recorded with a heparinated catheter (PE50) introduced into the left carotid of the animal and connected to a pressure processor (Gould, Pressure Processor) via a Gould pressure sensor. A catheter was introduced into the right jugular of the animal for the injection of the molecules to be studied. The animal was placed under assisted respiration and a bilateral section of the vagus nerves was carried out. The rat was then demedullated.
After a sufficient period of stabilization, study of the antagonism of the compound vis-a-vis angiotensin II (Hypertensin Ciba) was started in the following way.
1--Three consecutive injections of angiotensin II (0.75 micrograms/kg) spaced 15 minutes apart which allowed a reproducible and stable pressure response to be obtained. […]
The pressure effects of the angiotensin II in the presence of the antagonist were expressed as a percentage of the pressure effects of the angiotensin II administered alone. The 50% inhibitory dose of the studied effect was thus determined. […]

IC50 (angiotensin II receptor) [nM] | SMILES | ED50 (angiotensin II) [mg/kg]
1.3 | CCCCc1nc2c(n1Cc1ccc(-c3ccccc3S(=O)(=O)NC(=O)NCCC)cc1)C(=O)CCS2 [Example 3, 4'-[(2-butyl-6,7-dihydro-7-oxo-thiopyrano-(2,3-d)imidazol-1-(5H)-yl)-methyl]-N-[(propylamino)-carbonyl]-(1,1,'-biphenyl)-2-sulfonamide] | 0.08
0.2 | CCCCc1nc2c(n1Cc1ccc(-c3ccccc3S(=O)(=O)NC(=O)OCC)cc1)C(=O)CCS2 [Example 4] | 0.09
5.3 | CCCCc1nc2c(n1Cc1ccc(-c3ccccc3S(=O)(=O)NC(=O)NCCC)cc1)C(=NO)CCS2 [Example 7, 4'-[(2-butyl-7-(hydroxyimino)-1,5,6,7-tetrahydro-thiopyrano[2,3-d)-imidazol-1-yl)-methyl]-N-[(propylamino)-carbonyl]-(1,1'-biphenyl)-2-sulfonamide] | –
